From patent US10383859B2, “Benzo[d]thiazole derivative or salt thereof, and pharmaceutical composition including same” (Yuhan Corporation, priority 2016, dated 2019)
Like-named read-outs stand apart in the source and are kept apart here.

System: A549 cells
Experiment: Cell migration assay (24-well transwell, laminin)
Format: cell-based, human
Conditions: laminin 10 μg/mL in lower well, test compounds 0.39˜100 μM, migrated cells counted, read-out: Inhibitory activity against cell migration
Method: Cell migration was measured with a 24-well transwell having a polycarbonate membrane (8.0 μm pore size, Costar) at the bottom of the upper chamber. Each lower well was treated with laminin (10 μg/mL) and test compounds in predetermined concentrations (0.39˜100 μM) along with a serum-free RPMI1640 medium. A549 cells (Korean Cell Line Bank) were suspended in a serum-free RPMI1640 medium at a concentration of 1×10^6 cells/mL and then the test compounds were added thereto at the indicated concentrations. Each resulting solution (100 μL) was added to the upper chamber. The cells were cultured at 37° C. for 6 hours in a CO2 incubator. The upper chamber was taken out and then the cells were fixed with PBS containing 70% methyl alcohol for 10 minutes, followed by washing with PBS twice. The cells were stained with hematoxylin (Sigma) for 10 minutes and then washed with distilled water. The non-migrated cells were removed from the upper portion of the polycarbonate membrane with a cotton swab. The membranes were excised and separated from the chamber, and then mounted to a slide using a gel mount reagent (Biomeda, USA). The migrated cells (attached to the lower face of the membrane) were counted at three randomly selected sites under a microscope (×20). The cell counting was performed with the Image J program. From the counted cell numbers, each IC50 value was calculated by non-linear regression curve fit using the “GraphPad Prism” program.
The cells are pulled by laminin residing in the lower chamber and then passed through the polycarbonate membrane, so as to attach to the lower face of the membrane.

| SMILES | IC50 (Homo sapiens, A549, 6 h) | IC50 (6 hours) |
| --- | --- | --- |
| COc1ccc(CCN(Cc2ccc(C(=O)O)cc2)c2nc3cccc(F)c3s2)cc1 [Example 1, 4-({(7-fluorobenzo[d]thiazol-2-yl)[2-(4-methoxyphenyl)ethyl]amino}methyl)benzoic acid] | < 1000 nM | – |
| O=C(O)c1ccc(CN(CCc2ccccc2Cl)c2nc3cccc(F)c3s2)cc1 [Example 2, 4-(((2-chlorophenylethyl)(7-fluorobenzo[d]thiazol-2-yl)amino)methyl)benzoic acid] | < 1000 nM | – |
| O=C(O)c1ccc(CN(CCc2cccc(F)c2)c2nc3cccc(F)c3s2)cc1 [Example 3, 4-({(7-fluorobenzo[d]thiazol-2-yl)[2-(3-fluorophenyl)ethyl]amino}methyl)benzoic acid] | > 10000 nM | – |
| O=C(O)c1ccc(CN(CCc2ccc(Cl)cc2)c2nc3cccc(F)c3s2)cc1 [Example 4, 4-{[[2-(4-chlorophenyl)ethyl](7-fluorobenzo[d]thiazol-2-yl)amino]methyl}benzoic acid] | 1000 to 10000 nM | – |
| O=C(O)c1ccc(CN(CCc2cccc(Cl)c2)c2nc3cccc(F)c3s2)cc1 [Example 5, 4-{[[2-(3-chlorophenyl)ethyl](7-fluorobenzo[d]thiazol-2-yl)amino]methyl}benzoic acid] | > 10000 nM | – |
| Cc1ccc(CCN(Cc2ccc(C(=O)O)cc2)c2nc3cccc(F)c3s2)cc1 [Example 6, 4-(((7-fluorobenzo[d]thiazol-2-yl)(4-methylphenylethyl)amino)methyl)benzoic acid] | < 1000 nM | – |
| COc1cccc(CCN(Cc2ccc(C(=O)O)cc2)c2nc3cccc(F)c3s2)c1 [Example 7, 4-({(7-fluorobenzo[d]thiazol-2-yl)[2-(3-methoxyphenyl)ethyl]amino}methyl)benzoic acid] | – | 1000 to 10000 nM |
| O=C(O)c1ccc(CN(CCc2ccc(F)cc2)c2nc3cccc(F)c3s2)cc1 [Example 8, 4-({(7-fluorobenzo[d]thiazol-2-yl)[2-(4-fluorophenyl)ethyl]amino}methyl)benzoic acid] | > 10000 nM | – |
| CCOc1ccc(CCN(Cc2ccc(C(=O)O)cc2)c2nc3cccc(F)c3s2)cc1 [Example 9, 4-{[[2-(4-ethoxyphenyl)ethyl](7-fluorobenzo[d]thiazol-2-yl)amino]methyl}benzoic acid] | < 1000 nM | – |
| CCCOc1ccc(CCN(Cc2ccc(C(=O)O)cc2)c2nc3cccc(F)c3s2)cc1 [Example 10, 4-({(7-fluorobenzo[d]thiazol-2-yl)[2-(4-propoxyphenyl)ethyl]amino}methyl)benzoic acid] | 1000 to 10000 nM | – |
| CC(C)Oc1ccc(CCN(Cc2ccc(C(=O)O)cc2)c2nc3cccc(F)c3s2)cc1 [Example 11, 4-({(7-fluorobenzo[d]thiazol-2-yl)[2-(4-isopropoxyphenyl)ethyl]amino}methyl)benzoic acid] | 1000 to 10000 nM | – |
| CSc1ccc(CCN(Cc2ccc(C(=O)O)cc2)c2nc3cccc(F)c3s2)cc1 [Example 12, 4-{[(7-fluorobenzo[d]thiazol-2-yl){2-[4-(methylsulfanyl)phenyl]ethyl}amino]methyl}benzoic acid] | < 1000 nM | – |
| CSc1cccc(CCN(Cc2ccc(C(=O)O)cc2)c2nc3cccc(F)c3s2)c1 [Example 13, 4-{[(7-fluorobenzo[d]thiazol-2-yl){2-[3-(methylsulfanyl)phenyl]ethyl}amino]methyl}benzoic acid] | < 1000 nM | – |
| COc1ccc(OC)c(CCN(Cc2ccc(C(=O)O)cc2)c2nc3cccc(F)c3s2)c1 [Example 14, 4-({[2-(2,5-dimethoxyphenyl)ethyl](7-fluorobenzo[d]thiazol-2-yl)amino}methyl)benzoic acid] | > 10000 nM | – |
| COc1ccc(CCN(Cc2ccc(C(=O)O)cc2)c2nc3cccc(F)c3s2)cc1OC [Example 15, 4-({[2-(3,4-dimethoxyphenyl)ethyl](7-fluorobenzo[d]thiazol-2-yl)amino}methyl)benzoic acid] | < 1000 nM | – |
| COc1ccccc1CCN(Cc1ccc(C(=O)O)cc1)c1nc2cccc(F)c2s1 [Example 16, 4-({(7-fluorobenzo[d]thiazol-2-yl)[2-(2-methoxyphenyl)ethyl]amino}methyl)benzoic acid] | > 10000 nM | – |
| Cc1cccc(CCN(Cc2ccc(C(=O)O)cc2)c2nc3cccc(F)c3s2)c1 [Example 17, 4-({(7-fluorobenzo[d]thiazol-2-yl)[2-(3-methylphenyl)ethyl]amino}methyl)benzoic acid] | > 10000 nM | – |
| CC(C)COc1ccc(CCN(Cc2ccc(C(=O)O)cc2)c2nc3cccc(F)c3s2)cc1 [Example 18, 4-({(7-fluorobenzo[d]thiazol-2-yl)[2-(4-isobutoxyphenyl)ethyl]amino}methyl)benzoic acid] | 1000 to 10000 nM | – |
| O=C(O)c1ccc(CN(CCc2ccc(OCC3CC3)cc2)c2nc3cccc(F)c3s2)cc1 [Example 19, 4-{[[2-(4-cyclopropylmethoxyphenyl)ethyl](7-fluorobenzo[d]thiazol-2-yl)amino]methyl}benzoic acid] | < 1000 nM | – |
| CNc1ccc(CCN(Cc2ccc(C(=O)O)cc2)c2nc3cccc(F)c3s2)cc1 [Example 20, 4-{[(7-fluorobenzo[d]thiazol-2-yl){2-[4-(methylamino)phenyl]ethyl}amino]methyl}benzoic acid] | < 1000 nM | – |
| CN(C)c1ccc(CCN(Cc2ccc(C(=O)O)cc2)c2nc3cccc(F)c3s2)cc1 [Example 21, 4-{[{2-[4-(dimethylamino)phenyl]ethyl}(7-fluorobenzo[d]thiazol-2-yl)amino]methyl}benzoic acid] | < 1000 nM | – |
| O=C(O)c1ccc(CN(CCc2ccccc2)c2nc3cccc(F)c3s2)cc1 [Example 22, 4-{[(7-fluorobenzo[d]thiazol-2-yl)(2-phenylethyl)amino]methyl}benzoic acid] | 1000 to 10000 nM | – |
| O=C(O)c1ccc(CN(CCc2ccc(OCC3CCCCC3)cc2)c2nc3cccc(F)c3s2)cc1 [Example 23, 4-{[[2-(4-cyclohexylmethoxyphenyl)ethyl]-(7-fluorobenzo[d]thiazol-2-yl)amino]methyl}benzoic acid] | > 10000 nM | – |
| O=C(O)c1ccc(CN(CCc2ccc(OCC3CCC3)cc2)c2nc3cccc(F)c3s2)cc1 [Example 24, 4-{[[2-(4-cyclobutylmethoxyphenyl)ethyl]-(7-fluorobenzo[d]thiazol-2-yl)amino]methyl}benzoic acid] | 1000 to 10000 nM | – |
| CCOc1ccc(CCN(Cc2ccc(C(=O)O)cc2)c2nc3cccc(F)c3s2)cc1OC [Example 25, 4-({[2-(4-ethoxy-3-methoxyphenyl)ethyl](7-fluorobenzo[d]thiazol-2-yl)amino}methyl)benzoic acid] | > 10000 nM | – |
| COc1ccc(CCN(Cc2ccc(C(=O)O)cc2)c2nc3cccc(F)c3s2)c(F)c1 [Example 26, 4-({(7-fluorobenzo[d]thiazol-2-yl)[2-(2-fluoro-4-methoxyphenyl)ethyl]amino}methyl)benzoic acid] | < 1000 nM | – |
| COc1ccc(CCN(Cc2ccc(C(=O)O)cc2)c2nc3cccc(F)c3s2)c(OC)c1 [Example 27, 4-({[2-(2,4-dimethoxyphenyl)ethyl](7-fluorobenzo[d]thiazol-2-yl)amino}methyl)benzoic acid] | 1000 to 10000 nM | – |
| COc1ccc(CCN(Cc2ccc(C(=O)O)cc2)c2nc3cccc(F)c3s2)cc1F [Example 28, 4-({(7-fluorobenzo[d]thiazol-2-yl)[2-(3-fluoro-4-methoxyphenyl)ethyl]amino}methyl)benzoic acid] | < 1000 nM | – |
